Converted amounts (≈) assume the structure as drawn.

In this experiment the test system is Mycobacterium tuberculosis. Kind of experiment: Antimycobacterial activity against extensively drug resistant Mycobacterium tuberculosis. The class given is functional.
As to `Cc1cc(N2CCC(NC(=O)Nc3ccc(F)cc3)CC2)c2cc(F)ccc2n1`, the MIC – broadly, the least concentration at which growth counts as inhibited – turned out to be 3.82 µM (≈ 1.51 µg/mL).

`COc1ccc2nc(C)cc(N3CCC(NC(=S)Nc4ccccc4)CC3)c2c1` showed a minimum inhibitory concentration (MIC) of 7.62 µM (≈ 3.1 µg/mL).

In the case of `COc1ccc2nc(C)cc(N3CCC(NC(=S)Nc4ccc(Cl)cc4)CC3)c2c1`, the MIC is 6.94 µM (≈ 3.06 µg/mL).

The molecule `COc1ccc2nc(C)cc(N3CCC(NC(=S)Nc4ccc([N+](=O)[O-])cc4)CC3)c2c1` came in with an MIC of 1.72 µM (≈ 0.777 µg/mL). Against the preceding molecule, the MIC is about 4-fold lower.

Values taken from ChEMBL document CHEMBL3399993, “Design and synthesis of novel quinoline-aminopiperidine hybrid analogues as Mycobacterium tuberculosis DNA gyraseB inhibitors” (Bioorg Med Chem, 2015).
